Measurements taken from PMC7504677, “Impact of N-Alkylamino Substituents on Serotonin Receptor (5-HTR) Affinity and Phosphodiesterase 10A (PDE10A) Inhibition of Isoindole-1,3-dione Derivatives” (Molecules, 2020).

Assays:
5-HT1A receptor = biological target: T1, 5-HT1A receptor (Homo sapiens, UniProt P08908); assay: radioligand binding assay, [3H]8-OH-DPAT; conditions: read-out: 5-HT1A 1 µM ± SEM (% of control specific binding)
T1 sequence (P08908 1-422): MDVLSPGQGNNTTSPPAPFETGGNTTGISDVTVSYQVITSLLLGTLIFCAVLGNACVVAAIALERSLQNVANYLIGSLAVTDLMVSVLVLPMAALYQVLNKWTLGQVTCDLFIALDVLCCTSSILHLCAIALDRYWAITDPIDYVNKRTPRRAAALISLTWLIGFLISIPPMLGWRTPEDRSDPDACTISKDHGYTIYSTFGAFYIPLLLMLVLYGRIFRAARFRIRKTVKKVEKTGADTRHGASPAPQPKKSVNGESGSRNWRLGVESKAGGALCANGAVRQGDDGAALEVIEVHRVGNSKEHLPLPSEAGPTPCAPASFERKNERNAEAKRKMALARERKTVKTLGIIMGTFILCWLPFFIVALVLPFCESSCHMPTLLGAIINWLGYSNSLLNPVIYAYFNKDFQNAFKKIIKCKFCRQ
Experimental: (§1) Briefly: binding experiments were conducted in 96-well microplates in a total final volume of 250 μL of appropriate buffers. Reaction mix included 50 μL solution of test compound, 50 μL of radioligand ([^3H]8-OH-DPAT for 5-HT1A, and [^3H]-LSD for 5-HT7, respectively) and 150 μL of diluted membranes (see description and Table S2 in Supporting Materials). Specific assay conditions for each receptor are described elsewhere. The radioactivity was measured in a MicroBeta2 scintillation counter (PerkinElmer, USA). Each compound was tested in the assay as duplicate samples at 1 µM final concentrations. Results were expressed as percent inhibition of specific binding.

PDE10A = PDE10A (Homo sapiens, UniProt Q9Y233); assay: luminescence PDE inhibition assay (PDElight HTS cAMP phosphodiesterase assay kit); assay type: biochemical; conditions: for inhibition at 3 µM / inhibition at 10 µM: 1 h, percentage of inhibition respective to vehicle control (DMSO); for IC50: SEM of three independent experiments performed in duplicate
Experimental: Test and reference compounds were dissolved in dimethyl sulfoxide (DMSO) at a concentration of 1 mM and further diluted in assay buffer in order to obtain the final concentration of compounds: 10 µM and 3 µM, respectively. All reactions were carried out at 37 °C in white, half-area 96-well plates (Perkin Elmer, Waltham, MA, USA). The inhibition of PDE 10A enzyme was measured using the PDElight HTS cAMP phosphodiesterase assay kit (Lonza) according to the manufacturer’s recommendations. 2.5 U of PDE 10A enzyme was preincubated either with DMSO (vehicle control) or compound for 20 min before incubation with the substrate, cAMP (final concentration 1.25 µM), for 1 h. Then, PDELight AMP Detection Reagent was added. After 10 min incubation, the luminescence was measured in a multifunction plate reader (POLARstar Omega, BMG Labtech, Ortenberg, Germany).

5-HT7 receptor = 5-HT7 receptor (Homo sapiens, UniProt P34969); assay: radioligand binding assay, [3H]-LSD; conditions: read-out: 5-HT7 1 µM ± SEM (% of control specific binding)
Experimental: as §1

Sequence of 5-HT7 receptor (P34969 whole entry): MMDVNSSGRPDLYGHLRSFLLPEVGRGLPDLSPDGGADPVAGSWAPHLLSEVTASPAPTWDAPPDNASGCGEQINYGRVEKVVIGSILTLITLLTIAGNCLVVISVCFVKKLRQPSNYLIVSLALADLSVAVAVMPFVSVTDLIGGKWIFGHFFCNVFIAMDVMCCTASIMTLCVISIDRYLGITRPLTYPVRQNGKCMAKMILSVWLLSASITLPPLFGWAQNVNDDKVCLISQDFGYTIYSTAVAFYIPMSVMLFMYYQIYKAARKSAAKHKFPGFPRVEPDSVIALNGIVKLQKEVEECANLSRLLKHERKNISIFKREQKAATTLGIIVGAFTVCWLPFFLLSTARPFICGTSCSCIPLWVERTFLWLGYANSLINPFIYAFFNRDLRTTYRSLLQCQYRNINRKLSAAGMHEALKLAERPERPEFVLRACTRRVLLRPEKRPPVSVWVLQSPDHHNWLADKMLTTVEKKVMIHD
Sequence of PDE10A (Q9Y233 whole entry, species assumed): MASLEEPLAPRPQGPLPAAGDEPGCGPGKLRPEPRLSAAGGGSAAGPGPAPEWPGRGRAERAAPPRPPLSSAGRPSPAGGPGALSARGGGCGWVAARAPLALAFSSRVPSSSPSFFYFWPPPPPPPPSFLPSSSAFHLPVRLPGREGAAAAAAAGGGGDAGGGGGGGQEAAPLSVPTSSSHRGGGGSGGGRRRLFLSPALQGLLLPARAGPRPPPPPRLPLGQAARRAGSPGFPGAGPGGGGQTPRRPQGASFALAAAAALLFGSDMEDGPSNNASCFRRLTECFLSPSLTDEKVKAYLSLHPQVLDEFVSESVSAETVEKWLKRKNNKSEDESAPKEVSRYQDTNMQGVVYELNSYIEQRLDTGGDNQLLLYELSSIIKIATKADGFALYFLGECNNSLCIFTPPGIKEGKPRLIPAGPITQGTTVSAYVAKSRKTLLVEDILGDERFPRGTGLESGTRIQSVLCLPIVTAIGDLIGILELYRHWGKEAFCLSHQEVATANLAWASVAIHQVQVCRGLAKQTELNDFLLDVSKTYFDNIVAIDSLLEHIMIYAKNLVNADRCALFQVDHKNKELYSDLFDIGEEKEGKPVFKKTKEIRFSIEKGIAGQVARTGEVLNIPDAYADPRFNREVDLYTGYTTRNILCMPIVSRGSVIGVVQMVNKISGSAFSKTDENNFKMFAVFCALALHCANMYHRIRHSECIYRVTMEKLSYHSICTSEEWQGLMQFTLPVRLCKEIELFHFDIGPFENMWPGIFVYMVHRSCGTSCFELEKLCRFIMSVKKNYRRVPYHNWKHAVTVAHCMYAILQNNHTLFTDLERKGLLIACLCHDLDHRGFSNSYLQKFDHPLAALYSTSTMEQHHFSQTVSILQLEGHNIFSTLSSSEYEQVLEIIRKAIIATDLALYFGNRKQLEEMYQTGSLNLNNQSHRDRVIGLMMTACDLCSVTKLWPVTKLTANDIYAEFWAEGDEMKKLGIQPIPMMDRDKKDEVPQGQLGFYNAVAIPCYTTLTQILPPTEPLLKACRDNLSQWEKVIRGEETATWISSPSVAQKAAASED

SMILES | inhibition at 1 µM (5-HT1A receptor) | melting point | inhibition at 3 µM (PDE10A) | inhibition at 10 µM (PDE10A) | inhibition at 1 µM (5-HT7 receptor) | IC50 (PDE10A)
COc1cccc2c1C(=O)N(CCN1CCC3CCCCC3C1)C2=O (centres unmarked) [Compound 5, 2-[2-(Octahydroisoquinolin-2(1H)-yl)ethyl]-4-methoxy-1H-isoindole-1,3(2H)-dione] | 25 ± 3% | 145 to 146 °C | 0% | 0% | 0% | 
COc1cccc2c1C(=O)N(CCCN1CCC3CCCCC3C1)C2=O (centres unmarked) [Compound 8, 2-[3-(Octahydroisoquinolin-2(1H)-yl)propyl]-4-methoxy-1H-isoindole-1,3(2H)-dione] | 28 ± 3% | 103 to 104 °C | 7% | 7% | 0% | 
COc1cccc2c1C(=O)N(Cc1ccccn1)C2=O [Compound 10, 4-Methoxy-2-(pyridin-2-ylmethyl)-1H-isoindole-1,3(2H)-dione] | 10 ± 1% | 144 to 145 °C | 0% | 0% | 0% | 
COc1cccc2c1C(=O)N(Cc1nc3ccccc3[nH]1)C2=O [Compound 11, 2-(1H-Benzimidazol-2-ylmethyl)-4-methoxy-1H-isoindole-1,3(2H)-dione] | 39 ± 3% | 239 to 240 °C | 7% | 15% | 0% | 
COc1cccc2c1C(=O)N(CCc1c[nH]cn1)C2=O [Compound 14, 2-[2-(1H-Imidazol-4-yl)ethyl]-4-methoxy-1H-isoindole-1,3(2H)-dione] | 21 ± 1% | 227 to 228 °C | 0% | 0% | 0% | 
COc1cccc2c1C(=O)N(CCCCCc1nc3ccccc3[nH]1)C2=O [Compound 19, 2-[5-(1H-Benzimidazol-2-yl)pentyl]-4-methoxy-1H-isoindole-1,3(2H)-dione] | 28 ± 2% | 108 to 109 °C | 52% | 75% | 6% | 4.31 ± 0.365 µM
O=C1c2ccccc2C(=O)N1CCc1nc2ccccc2[nH]1 [Compound 20, 2-[2-(1H-Benzimidazol-2-yl)ethyl]-1H-isoindole-1,3(2H)-dione] | 26 ± 2% | 202 to 203 °C | 0% | 1% | 36% | 
O=C1c2ccccc2C(=O)N1CCCc1nc2ccccc2[nH]1 [Compound 21, 2-[3-(1H-Benzimidazol-2-yl)propyl]-1H-isoindole-1,3(2H)-dione] | 27 ± 2% | 190 to 191 °C | 16% | 45% | 14 ± 2% | 
O=C1c2ccccc2C(=O)N1CCCCc1nc2ccccc2[nH]1 [Compound 22, 2-[4-(1H-Benzimidazol-2-yl)butyl]-1H-isoindole-1,3(2H)-dione] | 20 ± 3% | 179 to 180 °C | 47% | 73% | 15 ± 2% | 5.65 ± 0.495 µM
O=C1c2ccccc2C(=O)N1CCCCCc1nc2ccccc2[nH]1 [Compound 23, 2-[5-(1H-Benzimidazol-2-yl)pentyl]-1H-isoindole-1,3(2H)-dione] | 48 ± 3% | 168 to 169 °C | 26% | 58% | 34 ± 2% | 

Continued, values first:

inhibition at 1 µM (5-HT1A receptor) | melting point | inhibition at 3 µM (PDE10A) | inhibition at 10 µM (PDE10A) | inhibition at 1 µM (5-HT7 receptor) | IC50 (PDE10A) | SMILES
27 ± 3% | 108 to 109 °C | 0% | 0% | 0% |  | COc1cc2c(cc1OC)CN(CCN1C(=O)c3cccc(OC)c3C1=O)CC2 [Compound 3, 2-[2-(6,7-Dimethoxy-3,4-dihydroisoquinolin-2(1H)-yl)ethyl]-4-methoxy-1H-isoindole-1,3(2H)-dione]
12 ± 4% | 157 to 158 °C | 0% | 0% | 0% |  | COc1cccc2c1C(=O)N(CCN1CCc3ccccc3C1)C2=O [Compound 4, 2-[2-(3,4-Dihydroisoquinolin-2(1H)-yl)ethyl]-4-methoxy-1H-isoindole-1,3(2H)-dione]
32 ± 4% | 107 to 109 °C | 0% | 0% | 0% |  | COc1cc2c(cc1OC)CN(CCCN1C(=O)c3cccc(OC)c3C1=O)CC2 [Compound 6, 2-[3-(6,7-Dimethoxy-3,4-dihydroisoquinolin-2(1H)-yl)propyl]-4-methoxy-1H-isoindole-1,3(2H)-dione]
33 ± 2% | 92 to 93 °C | 18% | 19% | 51 ± 2% |  | COc1cccc2c1C(=O)N(CCCN1CCc3ccccc3C1)C2=O [Compound 7, 2-[3-(3,4-Dihydroisoquinolin-2(1H)-yl)propyl]-4-methoxy-1H-isoindole-1,3(2H)-dione]
6 ± 2% | 167 to 168 °C | 0% | 0% | 0% |  | COc1cccc2c1C(=O)N(Cc1ccccc1)C2=O [Compound 9, 2-Benzyl-4-methoxy-1H-isoindole-1,3(2H)-dione]
13 ± 2% | 123 to 124 °C | 5% | 10% | 0% |  | COc1cccc2c1C(=O)N(CCc1ccccc1)C2=O [Compound 12, 4-Methoxy-2-(2-phenylethyl)-1H-isoindole-1,3(2H)-dione]
59 ± 4% | 155 to 157 °C | 0% | 0% | 0% |  | COc1cccc2c1C(=O)N(CCc1ccccn1)C2=O [Compound 13, 4-Methoxy-2-[2-(pyridin-2-yl)ethyl]-1H-isoindole-1,3(2H)-dione]
44 ± 5% | 197 to 198 °C | 40% | 70% | 0% | 6.71 ± 0.195 µM | COc1cccc2c1C(=O)N(CCc1nc3ccccc3[nH]1)C2=O [Compound 15, 2-[2-(1H-Benzimidazol-2-yl)ethyl]-4-methoxy-1H-isoindole-1,3(2H)-dione]
32 ± 3% | 94 to 95 °C | 11% | 13% | 14% |  | COc1cccc2c1C(=O)N(CCCc1ccccc1)C2=O [Compound 16, 4-Methoxy-2-(3-phenylpropyl)-1H-isoindole-1,3(2H)-dione]
16 ± 5% | 217 to 218 °C | 73% | 86% | 10 ± 3% | 1.001 ± 0.009 µM | COc1cccc2c1C(=O)N(CCCc1nc3ccccc3[nH]1)C2=O [Compound 17, 2-[3-(1H-Benzimidazol-2-yl)propyl]-4-methoxy-1H-isoindole-1,3(2H)-dione]
